According to patent publication US20230398130A1, “METHODS AND COMPOSITIONS FOR DIFFERENTIATING STEM CELLS” (Massachusetts Institute of Technology, priority 2020, published 2023):

Key:
ISC-enriched organoids [1] = test: Primary screen, 384-well 2.5-D organoid differentiation (ENR+CD, 6 days): basal lysozyme secretion (LYZ.NS); type: cell-based, murine; conditions: for Dose.FC.LYZ.NS (log 2 fold change, basal lysozyme secretion) / Dose.FC.LYZ.NS (log 2 fold change): vs plate median; for Dose.FC.LYZ.NS: FC vs plate median; for Z.LYZ.NS: standard z score; for SSMD.LYZ.NS: strictly standardized mean difference
Text: (§1) High-throughput screening.

ISC-enriched organoids [2] = test: Primary screen, 384-well 2.5-D organoid differentiation (ENR+CD, 6 days): carbachol-induced lysozyme secretion (LYZ.S); type: cell-based, murine; conditions: for Dose.FC.LYZ.S (log 2 fold change, carbachol-induced lysozyme secretion) / Dose.FC.LYZ.S (log 2 fold change): vs plate median; for Dose.FC.LYZ.S / Z.LYZ.S / SSMD.LYZ.S / Dose.FC.LYZ.S (log 2 fold change): primary screen; for Dose.FC.LYZ.S: FC vs plate median; for Z.LYZ.S: standard z score; for SSMD.LYZ.S: strictly standardized mean difference
Text: as §1

ISC-enriched organoids [3] = test: Primary screen, 384-well 2.5-D organoid differentiation (ENR+CD, 6 days, Target Selective Inhibitor Library, vs whole-plate median): ATP (CellTiter-Glo 3D, CTG); conditions: for Dose.FC.CTG (log 2 fold change, ATP) / Dose.FC.CTG (log 2 fold change): vs plate median; for Dose.FC.CTG: FC vs plate median; for Z.CTG: standard z score; for SSMD.CTG: strictly standardized mean difference
[4] = primary screen, 1st of the 4 dose lines of the treatment (dose not given)
[5] = primary screen, 2nd of the 4 dose lines of the treatment (dose not given)
[6] = primary screen, 3rd of the 4 dose lines of the treatment (dose not given)
[7] = primary screen, 4th of the 4 dose lines of the treatment (dose not given)
[8] = 1st of the 4 dose lines of the treatment (dose not given)
[9] = 2nd of the 4 dose lines of the treatment (dose not given)
[10] = 3rd of the 4 dose lines of the treatment (dose not given)
[11] = 4th of the 4 dose lines of the treatment (dose not given)

Nc1nc(N)c2nc(-c3cccc(O)c3)c(-c3cccc(O)c3)nc2n1 [TG100-115]
Z.LYZ.NS (standard z score) (ISC-enriched organoids [1]; dose 0.08 uM): 1.812 | Dose.FC.LYZ.NS (log 2 fold change, basal lysozyme secretion) (ISC-enriched organoids [1]; dose 0.08 uM): 0.208 | Z.LYZ.NS (standard z score) (ISC-enriched organoids [1]; dose 0.40 uM): −0.223 | Dose.FC.LYZ.NS (log 2 fold change, basal lysozyme secretion) (ISC-enriched organoids [1]; dose 0.40 uM): −0.026 | Z.LYZ.NS (standard z score) (ISC-enriched organoids [1]; dose 2.00 uM): 0.025 | Dose.FC.LYZ.NS (log 2 fold change, basal lysozyme secretion) (ISC-enriched organoids [1]; dose 2.00 uM): 0.003 | Z.LYZ.NS (standard z score) (ISC-enriched organoids [1]; dose 10.00 uM): −0.223 | Dose.FC.LYZ.NS (log 2 fold change, basal lysozyme secretion) (ISC-enriched organoids [1]; dose 10.00 uM): −0.026 | Dose.FC.LYZ.S (log 2 fold change, carbachol-induced lysozyme secretion) (ISC-enriched organoids [2]; dose 0.08 uM): 0.073 | Dose.FC.LYZ.S (log 2 fold change, carbachol-induced lysozyme secretion) (ISC-enriched organoids [2]; dose 0.40 uM): 0.032 | Dose.FC.LYZ.S (log 2 fold change, carbachol-induced lysozyme secretion) (ISC-enriched organoids [2]; dose 2.00 uM): −0.019 | Dose.FC.LYZ.S (log 2 fold change, carbachol-induced lysozyme secretion) (ISC-enriched organoids [2]; dose 10.00 uM): −0.100 | Z.CTG (standard z score) (ISC-enriched organoids [3]; dose 0.08 uM): −0.611 | Dose.FC.CTG (log 2 fold change, ATP) (ISC-enriched organoids [3]; dose 0.08 uM): −0.256 | Z.CTG (standard z score) (ISC-enriched organoids [3]; dose 0.40 uM): 0.158 | Dose.FC.CTG (log 2 fold change, ATP) (ISC-enriched organoids [3]; dose 0.40 uM): 0.066 | Z.CTG (standard z score) (ISC-enriched organoids [3]; dose 2.00 uM): −0.031 | Dose.FC.CTG (log 2 fold change, ATP) (ISC-enriched organoids [3]; dose 2.00 uM): −0.013 | Z.CTG (standard z score) (ISC-enriched organoids [3]; dose 10.00 uM): −0.277 | Dose.FC.CTG (log 2 fold change, ATP) (ISC-enriched organoids [3]; dose 10.00 uM): −0.116

c1cc(-c2cnn3cc(-c4ccc(N5CCNCC5)cc4)cnc23)c2cccnc2c1 [LDN-212854]
Dose.FC.LYZ.NS (ISC-enriched organoids [1]; Dose 0.08 uM, primary screen): 0.095 log 2 fold change | Z.LYZ.NS (ISC-enriched organoids [1]; Dose 0.08 uM, primary screen): 0.823 | Dose.FC.LYZ.NS (ISC-enriched organoids [1]; Dose 0.40 uM, primary screen): 0.051 log 2 fold change | Z.LYZ.NS (ISC-enriched organoids [1]; Dose 0.40 uM, primary screen): 0.446 | Dose.FC.LYZ.NS (ISC-enriched organoids [1]; Dose 2.00 uM, primary screen): −0.217 log 2 fold change | Z.LYZ.NS (ISC-enriched organoids [1]; Dose 2.00 uM, primary screen): −1.885 | Dose.FC.LYZ.NS (ISC-enriched organoids [1]; Dose 10.00 uM, primary screen): −0.273 log 2 fold change | Z.LYZ.NS (ISC-enriched organoids [1]; Dose 10.00 uM, primary screen): −2.375 | SSMD.LYZ.NS (ISC-enriched organoids [1]; [4]): 0.567 | SSMD.LYZ.NS (ISC-enriched organoids [1]; [5]): 0.395 | SSMD.LYZ.NS (ISC-enriched organoids [1]; [6]): −1.438 | SSMD.LYZ.NS (ISC-enriched organoids [1]; [7]): −1.649 | Dose.FC.LYZ.S (ISC-enriched organoids [2]; Dose 0.08 uM): 0.162 log 2 fold change | Dose.FC.LYZ.S (ISC-enriched organoids [2]; Dose 0.40 uM): 0.026 log 2 fold change | Dose.FC.LYZ.S (ISC-enriched organoids [2]; Dose 2.00 uM): −0.292 log 2 fold change | Dose.FC.LYZ.S (ISC-enriched organoids [2]; Dose 10.00 uM): −0.399 log 2 fold change | Z.LYZ.S (ISC-enriched organoids [2]; [8]): 1.050 | Z.LYZ.S (ISC-enriched organoids [2]; [9]): 0.167 | Z.LYZ.S (ISC-enriched organoids [2]; [10]): −1.888 | Z.LYZ.S (ISC-enriched organoids [2]; [11]): −2.582 | SSMD.LYZ.S (ISC-enriched organoids [2]; [8]): 0.799 | SSMD.LYZ.S (ISC-enriched organoids [2]; [9]): 0.136 | SSMD.LYZ.S (ISC-enriched organoids [2]; [10]): −1.525 | SSMD.LYZ.S (ISC-enriched organoids [2]; [11]): −1.672 | Dose.FC.CTG (ISC-enriched organoids [3]; Dose 0.08 uM, primary screen): 0.238 log 2 fold change | Z.CTG (ISC-enriched organoids [3]; Dose 0.08 uM, primary screen): 0.568 | Dose.FC.CTG (ISC-enriched organoids [3]; Dose 0.40 uM, primary screen): 0.129 log 2 fold change | Z.CTG (ISC-enriched organoids [3]; Dose 0.40 uM, primary screen): 0.309 | Dose.FC.CTG (ISC-enriched organoids [3]; Dose 2.00 uM, primary screen): −0.475 log 2 fold change | Z.CTG (ISC-enriched organoids [3]; Dose 2.00 uM, primary screen): −1.134 | Dose.FC.CTG (ISC-enriched organoids [3]; Dose 10.00 uM, primary screen): −1.263 log 2 fold change | Z.CTG (ISC-enriched organoids [3]; Dose 10.00 uM, primary screen): −3.018 | SSMD.CTG (ISC-enriched organoids [3]; [4]): 0.686 | SSMD.CTG (ISC-enriched organoids [3]; [5]): 0.242 | SSMD.CTG (ISC-enriched organoids [3]; [6]): −1.244 | SSMD.CTG (ISC-enriched organoids [3]; [7]): −1.589

CNC(=O)c1ccccc1Nc1nc(Nc2ccc(N3CCOCC3)cc2OC)ncc1Cl [TAE226 (NVP-TAE226)]
Z.LYZ.NS (standard z score) (ISC-enriched organoids [1]; Dose 0.08 uM, primary screen): −2.226 | Dose.FC.LYZ.NS (log 2 fold change) (ISC-enriched organoids [1]; Dose 0.08 uM, primary screen): −0.256 | Z.LYZ.NS (standard z score) (ISC-enriched organoids [1]; Dose 0.40 uM, primary screen): −2.650 | Dose.FC.LYZ.NS (log 2 fold change) (ISC-enriched organoids [1]; Dose 0.40 uM, primary screen): −0.304 | Z.LYZ.NS (standard z score) (ISC-enriched organoids [1]; Dose 2.00 uM, primary screen): −2.813 | Dose.FC.LYZ.NS (log 2 fold change) (ISC-enriched organoids [1]; Dose 2.00 uM, primary screen): −0.323 | Z.LYZ.NS (standard z score) (ISC-enriched organoids [1]; Dose 10.00 uM, primary screen): −2.545 | Dose.FC.LYZ.NS (log 2 fold change) (ISC-enriched organoids [1]; Dose 10.00 uM, primary screen): −0.292 | Dose.FC.LYZ.S (log 2 fold change) (ISC-enriched organoids [2]; Dose 0.08 uM): −0.333 | Dose.FC.LYZ.S (log 2 fold change) (ISC-enriched organoids [2]; Dose 0.40 uM): −0.376 | Dose.FC.LYZ.S (log 2 fold change) (ISC-enriched organoids [2]; Dose 2.00 uM): −0.400 | Dose.FC.LYZ.S (log 2 fold change) (ISC-enriched organoids [2]; Dose 10.00 uM): −0.426 | Z.CTG (standard z score) (ISC-enriched organoids [3]; Dose 0.08 uM, primary screen): −1.127 | Dose.FC.CTG (log 2 fold change) (ISC-enriched organoids [3]; Dose 0.08 uM, primary screen): −0.472 | Z.CTG (standard z score) (ISC-enriched organoids [3]; Dose 0.40 uM, primary screen): −2.689 | Dose.FC.CTG (log 2 fold change) (ISC-enriched organoids [3]; Dose 0.40 uM, primary screen): −1.126 | Z.CTG (standard z score) (ISC-enriched organoids [3]; Dose 2.00 uM, primary screen): −3.068 | Dose.FC.CTG (log 2 fold change) (ISC-enriched organoids [3]; Dose 2.00 uM, primary screen): −1.284 | Z.CTG (standard z score) (ISC-enriched organoids [3]; Dose 10.00 uM, primary screen): −2.363 | Dose.FC.CTG (log 2 fold change) (ISC-enriched organoids [3]; Dose 10.00 uM, primary screen): −0.989
